Measurements as given in EP3290412A1, “HIV-1 NUCLEOCAPSID INHIBITORS” (Università degli Studi di Siena, priority 2016, dated 2018).

Experiments:
[1] = biological target: T1, full length (1-55) HIV-1 NCp7 (Human immunodeficiency virus type 1 group M subtype B, UniProt P12493); experiment: Electromobility Shift Assay (EMSA), competition for ssDNA binding; details: NCp7 300 nM, M13mp18 ssDNA; positive = >25% inhibition at 100µM
T1 construct: recombinant full length (1-55) HIV-1 NCp7 proteins; made in house
Text: The assay used a recombinant full length (1-55) HIV-1 NCp7 proteins based on the NL4-3 sequence (GenBank accession number AF324493). The protein was expressed and purified as described in [Carteau, S., Gorelick, R. J. & Bushman, F. D. Coupled integration of human immunodeficiency virus type 1 cDNA ends by purified integrase in vitro: stimulation by the viral nucleocapsid protein. Journal of virology 73, 6670-6679 (1999)].
Competition for single-stranded (ss) DNA binding was realized by mixing 1 µL of serial dilutions of NC inhibitors (diluted in DMSO) with 44 µL of NCp7 (300 nM) in a reaction buffer (20 mM Tris-HCl pH 7.4, 2 mM MgCl2, 100 mM NaCl, 1 mM DTT). 5 µL of a 10 ng/µL (4 nM) solution of M13mp18 ssDNA (BayouBiolabs) were then added and the tubes were incubated for 25 minutes at 37 °C. The reaction was terminated by chilling the tubes on ice followed by the addition of 5 µL of a loading buffer (30% glycerol, 0.01% xylene cyanol, 10 mM Tris-HCl pH 7.4). Samples were then resolved on 25 cm-long, 1% (w/v) agarose gels (SeaKem LE Agarose, Lonza) in 0.5x TBE. Gels were run in a Sub-Cell GT cuvette (BioRad) for 18 h at room temperature at 3 V/cm, stained with SybrGold (Molecular Probes) and scanned for fluorescence using a Typhoon 8600 (GE Healthcare). The experiments were performed in triplicate. Competition efficiency was realized by measuring the relative distance in pixels between the unbound ssDNA control, the NCp7-bound ssDNA control and the bound ssDNA for each points of the titration with the ImageQuant software. The IC50 was estimated as the NC inhibitors concentrations for which the bound ssDNA migrated at 50% of the distance separating the bound from the unbound ssDNA.

[2] = tested on: HIV-1 reference strain NL4-3; experiment: MonoCycle assay (TZM-bl cells); format: cell-based; details: Human immunodeficiency virus 1, NL43, TZM-bl, 48 h, read-out: Mono Cycle IC50 nM
Method: MonoCycle assay is a cell based assay allowing the evaluation of antiviral activity of HIV-1 inhibitors targeting the early steps of HIV-1 life cycle such as entry, uncoating of viral particles, reverse transcription and integration. The assay consists in the infection of TZM-bl cells (20,000/well) with the HIV-1 reference strain NL4-3 in presence of serial five-fold dilutions of the investigational inhibitors. After 48 hours, cells were lysed adding 40 µl of Glo Lysis Buffer (Promega) to each well for 5 minutes, then 40 µl of Brighy-Glo Luciferase Reagent (Promega) were added to each well for relative luminescence units (RLU) counting using Glo-Max Multi Detection System (Promega). RLU values from each well were elaborated using the GraphPad v5.0 software to calculate the IC50 of each compound.

[3] = tested on: HIV-1 reference strain NL4-3; experiment: BiCycle assay (MT-2 then TZM-bl cells); format: cell-based
Method: BiCycle Assay is cell based assay allowing the evaluation of the antiviral activity of HIV-1 inhibitors on the whole replication cycle of HIV-1. The assay consists in a first round of infection of the T-cell line MT-2 followed by infection of TZM-bl cells. MT-2 cells were seeded at a concentration of 50,000 cells/well in a 96-well plate and infected with the HIV-1 reference strain NL4-3 in presence of five-fold dilutions of the investigational compounds. After 72 hours, 50 µl of supernatant from each well, containing the virus produced in the first round of infection, were used to infect TZM-bl cells seeded in a 96-plate well at a concentration of 30,000 cells/well. Two days later, cells were lysed adding 40 µl of Glo Lysis Buffer (Promega) to each well for 5 minutes, then 40 µl of Brighy-Glo Luciferase Reagent (Promega) were added to each well for relative luminescence units (RLU) counting using Glo-Max Multi Detection System (Promega). RLU values from each well were elaborated using the GraphPad v5.0 software to calculate the IC50 of each compound.

[4] = Human immunodeficiency virus 1, NL43, TZM-bl, read-out: BiCycle IC50 nM
[5] = Human immunodeficiency virus 1, NL43, MT-2 cells 72 hours then TZM-bl cells two days, NL4-3, read-out: BiCycle IC50

Compound	EMSA screening results [1]	IC50 [2]	IC50 [3, 4]	IC50 [3, 5]	EC50 ([3]; Human immunodeficiency virus 1, NL43, TZM-bl, read-out: Mean EC50 (nM))
O=C(NCC1CCCCC1)c1nc(-c2ccccn2)nc(O)c1O [Compound 1, N-(cyclohexylmethyl)-5,6-dihydroxy-2-(pyridin-2-yl)pyrimidine-4-carboxamide]	Positive (A compound showing >25% inhibition when tested at 100µM concentration is considered as "positive")	> 50000 nM	1210 nM		
O=C(OCC1CCCCC1)c1nc(-c2ccccn2)nc(O)c1O [Compound 2, cyclohexylmethyl 5,6-dihydroxy-2-(pyridin-2-yl)pyrimidine-4-carboxylate]	Negative	> 50000 nM	1780 nM		
O=C(NCC1CC1)c1nc(-c2ccccn2)nc(O)c1O [Compound 3, N-(cyclopropylmethyl)-5,6-dihydroxy-2-(pyridin-2-yl)pyrimidine-4-carboxamide]	Negative	27400 nM	1410 nM		
O=C(OC1CCCCC1)c1nc(-c2ccccn2)nc(O)c1O [Compound 13, cyclohexyl 5,6-dihydroxy-2-(pyridin-2-yl)pyrimidine-4-carboxylate]	Negative				
C[C@@H](NC(=O)c1nc(-c2nc3ccccc3[nH]2)nc(O)c1O)C1CCCCC1 [Compound 29, (R)-2-(1H-benzo[d]imidazol-2-yl)-N-(1-cyclohexylethyl)-5,6-dihydroxypyrimidine-4-carboxamide]	Positive (A compound showing >25% inhibition when tested at 100µM concentration is considered as "positive")		1780 nM		
Cc1ccc(-c2nc(O)c(O)c(C(=O)N[C@H](C)C3CCCCC3)n2)nc1 [Compound 41, (R)-N-(1-cyclohexylethyl)-5,6-dihydroxy-2-(5-methylpyridin-2-yl)pyrimidine-4-carboxamide]	Positive (A compound showing >25% inhibition when tested at 100µM concentration is considered as "positive")			298 nM	
O=C(NCCC1CCCC1)c1nc(-c2ccccn2)nc(O)c1O [Compound 43, N-(2-cyclopentylethyl)-5,6-dihydroxy-2-(pyridin-2-yl)pyrimidine-4-carboxamide]	Positive (A compound showing >25% inhibition when tested at 100µM concentration is considered as "positive")			1380 nM	
C[C@@H](NC(=O)c1nc(-c2cc(C(=O)OCc3ccccc3)ccn2)nc(O)c1O)C1CCCCC1 [Compound 46, benzyl (R)-2-(4-((1-cyclohexylethyl)carbamoyl)-5,6-dihydroxypyrimidin-2-yl)isonicotinate]	Positive (A compound showing >25% inhibition when tested at 100µM concentration is considered as "positive")		543 nM		
O=C(NCC1CCC1)c1nc(-c2cc3ccccc3cn2)nc(O)c1O [Compound 47, N-(cyclobutylmethyl)-5,6-dihydroxy-2-(isoquinolin-3-yl)pyrimidine-4-carboxamide]		8930 nM	870 nM		
C[C@@H](NC(=O)c1nc(-c2cc(N)ccn2)nc(O)c1O)C1CCCCC1 [Compound 48, (R)-2-(4-aminopyridin-2-yl)-N-(1-cyclohexylethyl)-5,6-dihydroxypyrimidine-4-carboxamide]		9870 nM	1340 nM		
C[C@@H](NC(=O)c1nc(-c2ccc(Cl)cn2)nc(O)c1O)C1CCCCC1 [Compound 49, (R)-2-(5-chloropyridin-2-yl)-N-(1-cyclohexylethyl)-5,6-dihydroxypyrimidine-4-carboxamide]		10900 nM	352 nM		
C[C@@H](NC(=O)c1nc(-c2ccc(C(=O)NCc3ccccc3)cn2)nc(O)c1O)C1CCCCC1 [Compound 50, (R)-2-(5-(benzylcarbamoyl)pyridin-2-yl)-N(1-cyclohexylethyl)-5,6-dihydroxypyrimidine-4-carboxamide]	Positive (A compound showing >25% inhibition when tested at 100µM concentration is considered as "positive")		348 nM		
C[C@@H](NC(=O)c1nc(-c2ccc(C(N)=O)cn2)nc(O)c1O)C1CCCCC1 [Compound 51, (R)-2-(5-carbamoylpyridin-2-yl)-N-(1-cyclohexylethyl)-5,6-dihydroxypyrimidine-4-carboxamide]	Negative		10600 nM		
C[C@H](NC(=O)c1nc(-c2cc(C(F)(F)F)ccn2)nc(O)c1O)C1CCCCC1 [Compound 52, (S)-N-(1-cyclohexylethyl)-5,6-dihydroxy-2-(4-(trifluoromethyl)pyridin-2-yl)pyrimidine-4-carboxamide]	Positive (A compound showing >25% inhibition when tested at 100µM concentration is considered as "positive")		433 nM		
C[C@@H](NC(=O)c1nc(-c2cccc(C(=O)OCc3ccccc3)n2)nc(O)c1O)C1CCCCC1 [Compound 54, benzyl (R)-6-(4-((1-cyclohexylethyl)carbamoyl)-5,6-dihydroxypyrimidin-2-yl)picolinate]	Positive (A compound showing >25% inhibition when tested at 100µM concentration is considered as "positive")			422 nM	
CC1CCC(NC(=O)c2nc(-c3ccccn3)nc(O)c2O)CC1 (stereo not shown) [Compound 56, 5,6-dihydroxy-N-(4-methylcyclohexyl)-2-(pyridin-2-yl)pyrimidine-4-carboxamide]	Positive (A compound showing >25% inhibition when tested at 100µM concentration is considered as "positive")		341 nM		
CC1CCCC(NC(=O)c2nc(-c3ccccn3)nc(O)c2O)C1 (stereo not shown) [Compound 57, 5,6-dihydroxy-N-(3-methylcyclohexyl)-2-(pyridin-2-yl)pyrimidine-4-carboxamide]	Positive (A compound showing >25% inhibition when tested at 100µM concentration is considered as "positive")		432 nM		
CC1(C)CCC(NC(=O)c2nc(-c3ccccn3)nc(O)c2O)CC1 [Compound 58, N-(4,4-dimethylcyclohexyl)-5,6-dihydroxy-2-(pyridin-2-yl)pyrimidine-4-carboxamide]	Positive (A compound showing >25% inhibition when tested at 100µM concentration is considered as "positive")		268 nM		
COc1ccc2nc(-c3nc(O)c(O)c(C(=O)N[C@H](C)C4CCCCC4)n3)ccc2c1 [Compound 66, (R)-N-(1-cyclohexylethyl)-5,6-dihydroxy-2-(6-methoxyquinolin-2-yl)pyrimidine-4-carboxamide]	Positive (A compound showing >25% inhibition when tested at 100µM concentration is considered as "positive")		1970 nM		
Cc1ccc(-c2nc(O)c(O)c(C(=O)N[C@H](C)C3CCCCC3)n2)nc1C [Compound 67, (R)-N-(1-cyclohexylethyl)-2-(,5,6-dimethylpyridin-2-yl)-5,6-dihydroxypyrimidine-4-carboxamide]	Positive (A compound showing >25% inhibition when tested at 100µM concentration is considered as "positive")			1340 nM	
Cc1nnc(C(=O)NC(C)(C)c2nc(C(=O)NCc3ccc(F)cc3)c(O)c(=O)n2C)o1 [Raltegravir™, Raltegravir, reference compound]					1 nM
